A short description of data set [1]: in vivo. The conditions noted are these: mouse, po.
Data set [2] in a line: in vivo. The conditions noted are these: mouse.
The nature of data set [3]: in vivo. Particulars: C57, mouse, plasma, po, 30 mg/kg.
Data set [4] can be described thus: Plasma concentration in C57 mouse at 10 mg/kg, po after 20 hrs by LC/MS analysis. It is filed as ADME, organism-based. Set-up: dose 10 mg/kg, route oral.

Take `O=C(NC(c1ccncc1)c1ccc(F)cc1)[C@@H]1CC[C@@H](N2CCOCC2)C[C@H]1c1ccc(Br)cc1` (stereo not given in full): the bioavailability in “in vivo [1]” came out at 6.9%. Moreover, the half-life in “in vivo [2]” is 2 h.
As to `O=C(NC(c1ccc(F)cc1)c1ccc(F)cc1)[C@@H]1CC[C@@H](N2CCOCC2)C[C@H]1c1ccc(Br)cc1`, in the data set “in vivo [1]”, the bioavailability was found to be 77%. Moreover, the concentration at 20 h in “in vivo [3]” was determined as 1020 nM. In “in vivo [2]”, the half-life is 7.6 h.
Consider `O=C(NC(c1ccncc1)c1ccc(Cl)cc1)[C@@H]1CC[C@@H](N2CCOCC2)C[C@H]1c1ccc(Br)cc1` (stereo not given in full), for which the bioavailability in “in vivo [1]” came out at 8.9%. Moreover, the half-life in the data set “in vivo [2]” was 1.4 h.
`O=C(NC(c1ccc(Cl)cc1)c1ccncc1Cl)[C@@H]1CC[C@@H](N2CCOCC2)C[C@H]1c1ccc(Br)cc1` (stereo not given in full) gave a bioavailability in “in vivo [1]” of 17%. This compound also had a half-life in “in vivo [2]” of 1.5 h.
The compound `O=C(NC(c1ccc(Cl)cc1)c1ccnc(F)c1)[C@@H]1CC[C@@H](N2CCOCC2)C[C@H]1c1ccc(Br)cc1` (stereo not given in full) had a bioavailability in the data set “in vivo [1]” of 90%. Moreover, the concentration at 20 h in the data set “in vivo [3]” is 390 nM; in data set [4] it was 163 nM. Also, the half-life in “in vivo [2]” is 2.9 h.
In turn, `O=C(NC(c1ccc(Cl)cc1)c1ccc(F)cn1)[C@@H]1CC[C@@H](N2CCOCC2)C[C@H]1c1ccc(Br)cc1` (stereo not given in full) showed a bioavailability in the data set “in vivo [1]” of 50%. Moreover, in the data set “in vivo [3]”, the concentration at 20 h is 1840 nM. In addition, the half-life in “in vivo [2]” was 4.9 h.
The compound `O=C(NC(c1ccc(Cl)cc1)c1cnccn1)[C@@H]1CC[C@@H](N2CCOCC2)C[C@H]1c1ccc(Br)cc1` (stereo not given in full) yielded a bioavailability in “in vivo [1]” of 5.2%. Moreover, the half-life in “in vivo [2]” is 1.2 h.
For `O=C(NC(c1ccccc1)c1ccccc1)[C@@H]1CC[C@@H](N2CCOCC2)C[C@H]1c1ccc(Br)cc1`, in that order: 36% and 3.1 h.

For the origin of these results see ChEMBL document CHEMBL3085718, “Discovery and optimization of orally active cyclohexane-based prolylcarboxypeptidase (PrCP) inhibitors” (Bioorg Med Chem Lett, 2013).
